Data: patent US7763669B2, “Low-viscosity, radiation-curable formulation for producing adaptive earpieces” (Dreve-Otoplastik GmbH, priority 2004, dated 2010)

Assays:
[1] = Flexural strength, modulus of elasticity and elongation per EN ISO 178 (Zwick 1 test unit) on post-cured test pieces; type: physicochemical
Procedure: The flexural strength, modulus of elasticity, and elongation were determined in accordance with EN ISO 178 (1996), using a Zwick 1 test unit from Zwick. The test pieces were post-cured for 2×7 min, using the PCU stroboscope irradiation unit from Dreve.
(§1) Table 2 lists the parameters for the above-described resins that are relevant for the stereolithographic process. All viscosity measurements were performed at 23° C. using a CVO rheometer from Bohlin Instruments. The flexural strength, modulus of elasticity, and elongation were determined in accordance with EN ISO 178 (1996), using a Zwick 1 test unit from Zwick. For determining the Ec and Dp values using the above-described windowpane method, in each case the average values were determined for 10 windowpane test pieces. The test pieces were produced using a Viper si2 SLA system (3D Systems) equipped with a Nd:YVO4 solid-state laser. The green compacts were post-cured for 2×7 min, using the Fototec PCU stroboscope irradiation unit from Dreve.

[2] = Windowpane method for critical energy Ec and laser penetration depth Dp; type: physicochemical; details: small quantities added to resin formulation; for Influence of inhibitor addition on penetration depth of the laser beam Dp: FIGS. 3 and 5; for Influence of inhibitor addition on critical energy Ec: FIGS. 4 and 6
Procedure: The influence of the concentration of phenothiazine (PTZ) and 2,2-diphenyl-1-picrylhydrazyl radical (DPPH) in the formulations of Examples 1 and 2 on the penetration depth of the laser beam and the critical energy is illustrated in FIGS. 3 through 6. The laser penetration depth and the critical energy were determined using the windowpane method described by P. F. Jacobs and D. T. Reid in Rapid Prototyping & Manufacturing, Society of Manufacturing Engineers, Dearborn, Mich., 1992, 1st Ed., pp. 263-280. […] This influence of the inhibitors phenothiazine (PTZ) and 2,2-diphenyl-1-picrylhydrazyl radical (DPPH) on the is relevant parameter Ec (critical energy, mJ·cm^−2) and Dp (laser penetration depth, mils) for the stereolithographic resin differs from the influence of the inhibitors, such as p-methoxyphenol, added to the stereolithographic resins corresponding to the prior art (L. E. Levy, J. Polym. Sci., Part A, Polym. Chem. 30 (1992), 569ff). For example, in comparison to p-methoxyphenol the parameters Ec and Dp may be linearly adjusted in a wider range by small concentrations of the inhibitors. This is of great advantage, particularly for the production of such resins and adjustment of the above-described parameters. From a technical production standpoint this may be used to adjust the laser penetration depth that has a direct influence on the accuracy of the production process. For example, performing curing over a value of laser penetration depth that exceeds the desired layer thickness for the process reduces the resolution of the process. High values of the laser penetration depth play an important role in particular for transparent stereolithographic resins that preferably are used for producing otoplastic parts. In the case of stereolithographic resins in the medical field, however, in particular stereolithographic resins for the production of the above-described adaptive earpieces, the accuracy of the production, and thus, the fit, of the molded body is of paramount importance.
as §1

[3] = resin formulation from Example 2, inhibitor concentration 0.01 % by wt.
[4] = resin formulation from Example 2, inhibitor concentration 0.025 % by wt.
[5] = resin formulation from Example 2, inhibitor concentration 0.05 % by wt.
[6] = resin formulation from Example 2, inhibitor concentration 0.10 % by wt.
[7] = resin formulation from Example 2, inhibitor concentration 0.15 % by wt.

Row | Elongation to break [1, 3] [%] | Flexural strength [1, 3] [N · mm^−2] | Modulus of elasticity [1, 3] [N · mm^−2] | Compound | Elongation to break [1, 4] [%] | Flexural strength [1, 4] [N · mm^−2] | Modulus of elasticity [1, 4] [N · mm^−2] | Elongation to break [1, 5] [%] | Flexural strength [1, 5] [N · mm^−2] | Modulus of elasticity [1, 5] [N · mm^−2] | Influence of inhibitor addition on penetration depth of the laser beam Dp [2] | Influence of inhibitor addition on critical energy Ec [2] | Elongation to break [1, 6] [%] | Flexural strength [1, 6] [N · mm^−2] | Modulus of elasticity [1, 6] [N · mm^−2] | Elongation to break [1, 7] [%] | Flexural strength [1, 7] [N · mm^−2] | Modulus of elasticity [1, 7] [N · mm^−2]
1 | 13 | 61 | 1452 | 2,2-diphenyl-1-picrylhydrazyl radical [DPPH] | 11 | 69 | 1324 | 10 | 66 | 1277 | linear decrease | sharp, essentially linear increase |  |  |  |  |  | 
2 |  |  |  | c1ccc2c(c1)Nc1ccccc1S2 [Phenothiazine, phenothiazine] | 15 | 95 | 1867 | 13 | 95 | 1989 | linear decrease | sharp, essentially linear increase | 12 | 101 | 2007 | 10 | 89 | 1832
